Assay: Brain tissue concentration of administered d5OT by LC-MS/MS (terminal experiment)
Assay type: in vivo, rhesus macaques (Macaca mulatta)
Design: key to BRAIN d5OT concentration: ND: not detected; +: detected but not quantifiable
Conditions: for tissue level at time at 148 min: female
Description: Monkeys were divided into three groups, each with two monkeys; each group received the following in a terminal study at the 5th week: Group 1 (Monkeys ID# 1 and ID# 5) received 40 IU of d5OT IN, Group 2 received 80 IU of d5OT IN (Monkeys ID# 2 and ID# 4) and Group 3 received 80 IU of d5OT IV (Monkeys ID# 3 and ID# 6). Animals were perfused on average, 140 ± 7 (mean ± SD) min after d5OT administration (range = 135–149 min) (Table 4). Plasma and CSF were drawn just before administration of d5OT, at the midpoint between d5OT administration and perfusion (~60 min post-d5OT administration), and just before perfusion.
Brain tissue distribution of d5OT, as well as the endogenous concentrations of OT (d0OT), were measured in the following 12 brain regions: cerebellum, brainstem, striatum, amygdala, thalamus, visual cortex, insular cortex, hypothalamus, hippocampus, mPFC (Brodmann areas 32,25,24), dPFC (Brodmann areas 46,9,10), and OFC (Brodmann areas 14,13,12) (Tables 1, 2 and 3).
Brain tissue sample preparation: Samples (~1.5 mg per sample) were individually weighed and placed into 12 mm × 75 mm glass tubes containing 1.5 ml ice-cold 1 M acetic acid and 30 µl of OT-d10 internal standard. Tissues were homogenized on ice and the resulting homogenates were poured into individual 15 ml polystyrene tubes. The original glass tube was rinsed with 1 ml acetonitrile, and this rinse was added to the appropriate 15 ml polystyrene tube containing the homogenate. After all homogenizations were complete, 3 ml acetonitrile was added to each tube and extraction proceeded, as described for the plasma and CSF samples.
LC–MS/MS instrument parameters: Microtiter plates were prepared, as described above, and loaded onto a SIL-30ACMP autosampler set at 4 °C (Shimadzu). Forty microliters of each standard, QC or sample were injected onto an ACE Excel 2 C18-PFP 50 mm × 2.1 mm column (Advanced Chromatography Technologies, LTD, Aberdeen, Scotland) at 50 °C using reversed-phase chromatography. Mobile phase A was 0.1% formic acid in water and mobile phase B was 0.1% formic acid in ACN. The LC time gradient was created using two Nexera LC-30AD pumps (Shimadzu) running at 0.5 ml/min. Chromatography for serum and CSF samples began at 10% B and ended at 16% B at 3.6 min. One minute at 60% B was then required to wash the column, and the pumps re-equilibrated at 10% B for an additional 1.7 min (total run time ~6 min). Outside of the 1.55–3.55 min window during which OT eluted, a divert valve sent the LC effluent to waste.
Heated electrospray […] in positive mode, with scheduled multiple reaction monitoring (MRM) on a Shimadzu LCMS-8050, was used for detection of OT. The interface temperature was 270 °C and heat block temperature was 170 °C. Gas was supplied by a Peak Genius 1051 nitrogen and air generator (Peak Scientific, Inchinnan, UK). Nitrogen gas was used for nebulizing (1 L/min) and drying (8.2 L/min), while air was used for heating (7.8 L/min). A capillary B needle was used in the interface. Needle protrusion was set to 1.25 mm and probe distance was set to 1.0 mm; both were determined empirically. Argon (Airgas, Radnor, PA) was used for the collision-induced dissociation at 330 kPa. The MS/MS conditions for OT were optimized using the automated MRM optimization procedure in LabSolutions software (Shimadzu). We collected two MRM transitions each, for d0OT (1007.40 > 723.40 and 1007.40 > 285.30), d5OT (1012.00 > 723.40 and 1012.00 > 290.35), and d10OT (1017.70 > 723.35 and 1017.70 > 295.40); the first transition listed in each case was used for quantitation, while the second was used as a reference ion. Retention times for d0OT, d5OT, and d10OT were 3.290, 3.270, and 3.253 min, respectively.
The sensitivities of each assay within the method were determined by the lowest and highest concentration calibrators in the calibration curve. The lower limit of quantitation (LLOQ) for d0OT was 10 pg/ml (4 pg/col); the LLOQ for d5OT was 100 pg/ml (40 pg/col). […]

CC[C@H](C)[C@@H]1NC(=O)[C@H](Cc2ccc(O)cc2)NC(=O)[C@@H](N)CSSC[C@@H](C(=O)N2CCC[C@H]2C(=O)N[C@@H](CC(C)C)C(=O)NCC(N)=O)NC(=O)[C@H](CC(N)=O)NC(=O)[C@H](CCC(N)=O)NC1=O [d5OT]
Brain penetrance of d5OT in the striatum, % of the dose delivered IN (40 IU IN, assuming ~20% of delivered volume reaches upper nasal cavity): ~0.03% | BRAIN d5OT concentration (Amygdala, 40 IU IN, monkey #5 (F), perfused 138 min post-dose, LC-MS/MS): + | BRAIN d5OT concentration (Brainstem, 40 IU IN, monkey #1 (F), perfused 148 min post-dose, LC-MS/MS): + | BRAIN d5OT concentration (Brainstem, 80 IU IN, monkey #2 (M), 136 min post-dose, molarity calculated for extracellular fluid volume (20% of brain volume)): < 1 nM | BRAIN d5OT concentration (Brainstem, 80 IU IN, monkey #2 (M), perfused 136 min post-dose, LC-MS/MS): 0.14 pg/mg | BRAIN d5OT concentration (Brainstem, 80 IU IN, monkey #4 (M), 135 min post-dose, molarity calculated for extracellular fluid volume (20% of brain volume)): 1 nM | BRAIN d5OT concentration (Brainstem, 80 IU IV, monkey #6 (F), perfused 135 min post-dose, LC-MS/MS): + | BRAIN d5OT concentration (Cerebellum, 80 IU IN, monkey #4 (M), perfused 135 min post-dose, LC-MS/MS): + | BRAIN d5OT concentration (OFC, 80 IU IN, monkey #2 (M), 136 min post-dose, molarity calculated for extracellular fluid volume (20% of brain volume)): 11 nM | BRAIN d5OT concentration (Striatum, 40 IU IN, monkey #1 (F), 148 min post-dose, molarity calculated for extracellular fluid volume (20% of brain volume)): 13 nM | BRAIN d5OT concentration (Striatum, 40 IU IN, monkey #5 (F), perfused 138 min post-dose, LC-MS/MS): + | BRAIN d5OT concentration (Thalamus, 40 IU IN, monkey #1 (F), 148 min post-dose, molarity calculated for extracellular fluid volume (20% of brain volume)): 1 nM | d5OT concentration in striatum (highest), comparable to that in the OFC (after IN d5OT, Table 1): ~ 10 nM | BRAIN d5OT concentration (dPFC, 40 IU IN, monkey #5 (F), perfused 138 min post-dose, LC-MS/MS): + | BRAIN d5OT concentration (dPFC, 80 IU IN, monkey #4 (M), perfused 135 min post-dose, LC-MS/MS): + | BRAIN d5OT concentration (dPFC, 80 IU IV, monkey #6 (F), perfused 135 min post-dose, LC-MS/MS): + | tissue level at time at 148 min (rhesus monkey, brain (striatum), Striatum, 40 IU IN, monkey #1 (F), perfused 148 min post-dose, LC-MS/MS): 2.41 ng/g | tissue level at time at 148 min (rhesus monkey, brain (thalamus), Thalamus, 40 IU IN, monkey #1 (F), perfused 148 min post-dose, LC-MS/MS): 0.23 ng/g | BRAIN d5OT concentration (mPFC, 80 IU IV, monkey #6 (F), perfused 135 min post-dose, LC-MS/MS): + | tissue level at time at 136 min (male, rhesus monkey, brain (OFC), OFC, 80 IU IN, monkey #2 (M), perfused 136 min post-dose, LC-MS/MS): 2.04 ng/g | tissue level at time at 2.25 h (male, rhesus monkey, brain (brainstem), Brainstem, 80 IU IN, monkey #4 (M), perfused 135 min post-dose, LC-MS/MS): 0.24 ng/g | Brain concentrations of d5OT after IN delivery (on the order of, Table 1): ≥ 1 nM

From publication PMC7270110, “Labeled oxytocin administered via the intranasal route reaches the brain in rhesus macaques” (Nature Communications, 2020)
